Measurements from patent US7908091B2, “Methods of predicting and monitoring tyrosine kinase inhibitor therapy” (Prometheus Laboratories Inc., priority 2006, dated 2011).
Like-named read-outs stand apart in the source and are kept apart here.

Columns and labels:
[1] = test system: refractory ovarian cancer; settings: in vivo; cited from earlier work
[2] = test system: advanced stage III or IV non-small cell lung cancer; settings: progressive disease after standard chemotherapies; cited from earlier work
[3] = test system: EGF-dependent cell proliferation; settings: cited from earlier work
[4] = human, in vivo; cited from earlier work
[5] = test system: non-small cell lung cancer; settings: patients with refractory non-small cell lung cancer in whom standard therapy failed; cited from earlier work
A431 = assay: gefitinib sensitivity (IC50) of cancer cell line
MDA-MB-361 = assay: gefitinib sensitivity (IC50) of cancer cell line
SkBr3 = assay: gefitinib sensitivity (IC50) of cancer cell line
BT474 = assay: gefitinib sensitivity (IC50) of cancer cell line
DU145 = assay: gefitinib sensitivity (IC50) of cancer cell line
SkOv3 = assay: gefitinib sensitivity (IC50) of cancer cell line
Akt = settings: gefitinib concentration of 10 μM, data from FIG. 3 of Moasser et al., cited from earlier work
MDA-MB-453 = assay: gefitinib sensitivity (IC50) of cancer cell line
[6] = test system: hormone refractory prostate cancer; settings: in vivo; cited from earlier work
[7] = test system: prostate cancer, renal cell carcinoma, or multiple myeloma; settings: in vivo; cited from earlier work
[8] = test system: refractory acute myeloid leukemia; settings: twice weekly administration; cited from earlier work
advanced kidney cancer = settings: after a 12-week treatment period, compared to the placebo group; cited from earlier work
renal cell carcinoma = settings: human, in vivo; cited from earlier work

SMILES: C=CC(=O)Nc1cc2c(Nc3ccc(F)c(Cl)c3)ncnc2cc1OCCCN1CCOCC1 [canertinib]
- antitumor activity [1]: minimal antitumor activity

SMILES: C#Cc1cccc(Nc2ncnc3cc(OCCOC)c(OCCOC)cc23)c1 [erlotinib]
- median survival [2]: 8.4 months
- response rate [2]: 12%
- inhibits EGF-dependent cell proliferation [3]: nanomolar concentrations
- most common / toxic side-effects [4]: an acneiform skin rash and diarrhea

SMILES: COc1cc2ncnc(Nc3ccc(F)c(Cl)c3)c2cc1OCCCN1CCOCC1 [gefitinib]
- response rate [5]: about 10%
- CATAG (gefitinib-sensitive) (A431): 1 (An IC50 <9 μM was considered gefitinib-sensitive (“CATAG” = 1))
- CATAG (gefitinib-sensitive) (MDA-MB-361): 1 (An IC50 <9 μM was considered gefitinib-sensitive (“CATAG” = 1))
- CATAG (gefitinib-sensitive) (SkBr3): 1 (An IC50 <9 μM was considered gefitinib-sensitive (“CATAG” = 1))
- CATAG (gefitinib-sensitive) (BT474): 1 (An IC50 <9 μM was considered gefitinib-sensitive (“CATAG” = 1))
- CATAG (gefitinib-sensitive) (DU145): 1 (An IC50 <9 μM was considered gefitinib-sensitive (“CATAG” = 1))
- CATAG (gefitinib-sensitive) (SkOv3): 1 (An IC50 <9 μM was considered gefitinib-sensitive (“CATAG” = 1))
- Akt (level of Akt activity) (Akt; A431): 2
- Akt (level of Akt activity) (Akt; A549): 85
- Akt (level of Akt activity) (Akt; BT474): 10
- Akt (level of Akt activity) (Akt; Colo205): 105
- Akt (level of Akt activity) (Akt; DU145): 35
- Akt (level of Akt activity) (Akt; DU4475): 105
- Akt (level of Akt activity) (Akt; MCF-7): 70
- Akt (level of Akt activity) (Akt; MDA-MB-361): 20
- Akt (level of Akt activity) (Akt; MDA-MB-453): 40
- Akt (level of Akt activity) (Akt; MDA-MB-468): 90
- Akt (level of Akt activity) (Akt; MDA-MIB-231): 70
- Akt (level of Akt activity) (Akt; PC3): 55
- Akt (level of Akt activity) (Akt; SkBr3): 2
- Akt (level of Akt activity) (Akt; SkOv3): 40
- Akt (level of Akt activity) (Akt; T24): 90
- Akt (level of Akt activity) (Akt; T47D): 85
- Akt (level of Akt activity) (Akt; ZR75): 85
- CATAG (gefitinib-sensitive) (MDA-MB-453): 1 (An IC50 <9 μM was considered gefitinib-sensitive (“CATAG” = 1))

SMILES: CS(=O)(=O)CCNCc1ccc(-c2ccc3ncnc(Nc4ccc(OCc5cccc(F)c5)c(Cl)c4)c3c2)o1 [lapatinib]
- most common / toxic side-effects [4]: diarrhea and skin rash

SMILES: Cc1oncc1C(=O)Nc1ccc(C(F)(F)F)cc1 [leflunomide]
- patients with a decrease in prostate specific antigen of greater than 50% [6]: about 7%
- patients with partial responses [6]: less than 5%
- most common / toxic side-effects [4]: asthenia, nausea, anorexia, and anemia

SMILES: Cc1cc(C)c(/C=C2\C(=O)Nc3ccccc32)[nH]1 [semaxinib]
- objective response rates [7]: minimal objective response rates
- complete responses [8]: 1
- partial responses [8]: 7
- most common / toxic side-effects [4]: headache, nausea, vomiting, asthenia, pain at the infusion site, phlebitis, change in voice, and fever

SMILES: CNC(=O)c1cc(Oc2ccc(NC(=O)Nc3ccc(Cl)c(C(F)(F)F)c3)cc2)ccn1 [sorafenib]
- patients whose disease did not progress (advanced kidney cancer): statistically higher percentage of patients whose disease did not progress
- most common / toxic side-effects [4]: skin reactions such as hand-foot syndrome and rash, diarrhea, fatigue, weight loss, and hypertension

SMILES: Clc1ccc(Nc2nnc(Cc3ccncc3)c3ccccc23)cc1 [vatalanib]
- patients with minor responses (renal cell carcinoma): 15%
- patients with partial responses (renal cell carcinoma): 5%
